Test [1] has as its system DENV. Put plainly: Hematocrit analysis in DENV-infected WT mice. Format: in vivo. To be noted: i.p. 1×10^6 pfu DENV, 1 day after infection, versus uninfected baseline. The procedure: (§1) Serum was obtained from uninfected mice, DENV-infected and untreated mice, and mice that received MC-stabilizing or MC-product targeting treatments 24 hr after infection. Error bars represent the SEM of values obtained from individual animals n≥3.
To support the observation of increased dye leakage, hematocrit analysis was also performed using blood samples from mice. This test is one that is used in some cases to diagnose DENV pathology clinically by measuring the packed red blood cell volume from the blood and, therefore, it is a measure of plasma loss (see, e.g., Special Programme for Research and Training in Tropical Diseases, WHO Dengue: guidelines for diagnosis, treatment, prevention, and control. (2009) New ed. Geneva:TDR:World Health Organization). […] These findings cumulatively point to a pivotal role for MCs in promoting DENV-induced increased in vascular permeability.
Due to the contributions of MCs to many pathological inflammatory disorders, there are a number of available drugs that target MCs or products that they produce after activation. […] This hypothesis was tested by blocking DENV induced vascular leakage using a panel of such drugs. […] Drugs were administered once, 30 minutes after i.p. instillation of 1×106 DENV and vascular leakage assessed 1 day after infection.

Test [2] relates to DENV. Briefly: Evans Blue perfusion model of DENV-induced vascular leakage in WT mice. Format: in vivo. To be noted: i.p. 1×10^6 pfu DENV, 1 day after infection, versus uninfected baseline. Here is the method: Uninfected mice, or mice infected with 1×10^6 pfu of DENV were injected with 100 μL of 5% Evans Blue dye 30 minutes prior to euthanasia. […] This contrast is particularly striking in the liver, a Dengue-target organ.
as §1
As expected, Sash mice, which are MC-deficient model (see, e.g., Grimbaldestron, M. A. et al. (2005) Am. J. Pathol. 167:835-848), have undetectable serum levels of MCPT1 as baseline, as do uninfected congenic wild-type (WT) controls (FIG. 2A). To examine vascular leakage, mice infected with DENV were injected by tail vein with the tracking dye, Evans Blue, 30 minutes prior to euthanasia at a 24 hr time point.
Using this Evans Blue perfusion model, the extent of vascular leakage induced in 24 hr after i.p. instillation of 1×10^6 plaque-forming units (pfu) of DENV in WT and Sash mice was determined. […]
Due to the contributions of MCs to many pathological inflammatory disorders, there are a number of available drugs that target MCs or products that they produce after activation. […] Drugs were administered once, 30 minutes after i.p. instillation of 1×106 DENV and vascular leakage assessed 1 day after infection.

For `CN1CCC(=C2c3ccccc3CC(=O)c3sccc32)CC1` [ketotifen], the “hematocrit values compared to baseline levels” value in the test with DENV [1] is “not statistically different from baseline levels”. Besides, the “levels of tissue dye detection compared to baseline levels” value in the test with DENV [2] was “not statistically different from baseline levels”.

The values above are taken from patent US10668059B2, “Compositions and methods for the prevention and treatment of mast cell-induced vascular leakage” (Duke University, priority 2012, dated 2020).
